Measured values: patent publication US4960790A, “Derivatives of taxol, pharmaceutical compositions thereof and methods for the preparation thereof” (University of Kansas, priority 1989, dated 1990)
Where a name gives a salt, the structure may show the parent alone. Read-outs that look alike come from different tables or passages of the source.

Legend:
microtubule assembly = assay: In vitro microtubule assembly kinetics; assay type: biochemical; settings: rank order
Description: (A) In vitro Microtubule Assembly Kinetics Studies
The microtubule assembly study was conducted using both 2' and 7-derivatives according to the in vitro procedures disclosed, for example, in Mellado et al., Biochemical and Biophysical Research Communications, Vol. 124, No. 2 (1984), pp. 329-336; Magri et al., J. Org. Chem., 51, 797-802 (1986); and Parness et al., Biochemical and Biophysical Research Communications, Vol. 105, No. 3, pp. 1082-1091 (1982).

B-16 melanoma cells = assay: In vitro B16 melanoma cell proliferation; assay type: cell-based; settings: rank order
Description: These studies were conducted according to standard procedures as described in Donoso and Himes, Cancer Biochem. Biophysics, vol. 7, (1984), p. 133.

[1] = tested on: human mammary carcinoma MX-1 xenograft; assay: Subrenal capsule human mammary carcinoma MX-1 xenograft in mice; settings: for ANML BODY WT DIFF (test minus control) / TEST BODY WT CHG / # OF ANMLS ALIVE CALC/TOTAL / Average tumor WEIGHT CHANGE (DELTA) / Average tumor weight, FINAL: Q4D; for ANML BODY WT DIFF (test minus control) / TEST BODY WT CHG: Day 1 to 11; for # OF ANMLS ALIVE CALC/TOTAL / Average tumor WEIGHT CHANGE (DELTA) / Average tumor weight, FINAL / % T/C: Day 11; for % T/C: Q4D Days 1, 5, 9
Excerpt: The procedures followed are those described at pages 23-24 of NIH Publication No. 84-2635, In Vivo Cancer Model (February 1984).
In the procedure, test groups of mice (6 mice per test group) and control groups of 12 mice per group are utilized. A tumor fragment (human mammary carcinoma MX-1 xenograft), is implanted under the membranous covering of the kidney of each mouse.
Day 0: Anesthetize animals. Record body weight (Weigh Day 1). Implant tumor, measure and record. Randomize animals after they recover from the anesthetic. Run bacterial cultures. Determine solubilities of test agent. Record deaths daily.
Day 1: Check cultures. Discard experiment if contaminated. Prepare test materials. Initiate test agent injections (in the nape of the neck) based on individual body weight. Treatment is Q4D on Days 1, 5, and 9. Prepare test agent fresh on each injection day and administer based on individual body weight for that day.
Days 5 and 9: Prepare test agent fresh on each injection day and administer based on individual body weight for that day.
Day 11: End and evaluate experiment. Record body weights (Weigh Day 2). Measure tumor in OMU's (Ocular Micrometer Unit--10 OMU's=1 mm) and record.
The parameter measured is mean tumor weight change (delta) based on length and width measurements in millimeters. Mean animal body weights are computed for Day 1 and Day 11, compute T/C for all test groups with>65% survivors on Day 11. An excessive body weight change difference (test minus control) may also be used in evaluating toxicity. The dimensions are measured and recorded in Ocular Micrometer Units (OMU). A computer is utilized for the following:
(1) Converts OMU's to millimeters (mm).
(2) Calculates tumor weights (mgs) from tumor dimensions (mm×mm) following the formula for the volume of a prolate ellipsoid: [formula] (3) Calculates the change (delta) in mean tumor weight for each group of mice:
Change in Mean Tumor Weight=Mean Tumor WeightFINAL -Mean Tumor WeightINITIAL.
(4) Calculates the change (delta) in mean tumor weight for test (T) and control (C) groups.
(5) Calculates T/C% for all test groups with>65% survivors on Final Evaluation Day: [formula]

[2] = in words; cited from earlier work
microtubules = settings: in vitro / cells, in words; cited from earlier work
tumors = settings: in words; cited from earlier work
Solubility = assay type: physicochemical; settings: read-out: Solubility
[3] = Chemical stability in buffer or water; assay type: physicochemical
Description: The compound was subjected to stability studies according to the following procedures.
(§1) Stabilities of derivatives at various pHs were studied at 25° and 37°. The plasma studies were conducted at 37° in rat and human plasma. Human plasma was obtained from Watkins Hospital and rat plasma was obtained from the Animal Care Unit of the University of Kansas. The derivative concentration used was around 20-25 μg/ml. A stock solution of the compound was prepared at 0.8-1.0 mg/mL and was added to plasma to give the desired concentration (20-25 μg/mL). One hundred microliter samples were removed and was quenched with 250 uL. acetonitrile and centrifuged to precipitate the plasma proteins. The degradation kinetics were studied by HPLC plotting peak area vs. time. The t90 and t50 were calculated. Both chemical and plasma studies were followed by high performance liquid chromatography using a RP-8 column (15 cm) and a precolumn (5 cm). The detector was set at 227 nm. The mobile phase consisted of 0.02M acetate (pH 5): acetonitrile 50:50 or 35:65 and the flow rate ranged from 1-1.5 mL/min or the same solvents containing 0.001M tetrabutylammoniumydrogensulphate and a flow rate of 1 mL/min.
The identity of this peak was further confirmed by the degradation studies of the new derivatives. Thus, 2'(DMG) taxol was incubated with water at 37° and the product was concentrated and purified by preparative TLC. The product after purification was analyzed by HPLC and spectroscopic methods.

[4] = Plasma stability, rat plasma; assay type: in vitro ADME; settings: rat plasma (20 μg/mL), 37° C.
Description: as §1

[5] = Plasma stability, dog plasma; assay type: in vitro ADME; settings: dog plasma (20 μg/mL), 37° C.
[6] = Plasma stability, human plasma; assay type: in vitro ADME; settings: human plasma (20 μg/mL), 37° C.
Description: as §1, with “The derivative concentration used was around 20-25 μg/ml. A stock solution of the compound was prepared at 0.8-1.0 mg/mL and was added to plasma to give the desired concentration (20-25 μg/mL).” left out

## CC(=O)O[C@H]1C(=O)[C@@]2(C)[C@H]([C@H](OC(=O)c3ccccc3)[C@]3(O)C[C@H](OC(=O)[C@H](O)[C@@H](NC(=O)c4ccccc4)c4ccccc4)C(C)=C1C3(C)C)[C@]1(OC(C)=O)CO[C@@H]1C[C@@H]2O [Taxol]
Microtubule assembly
  Ability to assemble microtubules (order): taxol >7-(N,N-dimethylglycyl)taxol(11)>2'(N,N-diethylaminopropionyl)taxol(8)>2'(N,N-dimethylglycyl)taxol(2)
B-16 melanoma cells
  Order of effectiveness in B-16 melanoma cell proliferation study: taxol>2'-(N,N-dimethylglycyl)taxol>2'-(N,N-diethylaminopropionyl)taxol>7-(N,N-dimethylglycyl)taxol
[1]; Table 1, 4.45 mg/kg
  ANML BODY WT DIFF (test minus control): .5
  TEST BODY WT CHG: -1.2
  # OF ANMLS ALIVE CALC/TOTAL: 5/5
  Average tumor WEIGHT CHANGE (DELTA): -.79 MGS
  Average tumor weight, FINAL: .00 MGS
[1]; Table 1, 6.67 mg/kg
  ANML BODY WT DIFF (test minus control): .2
  TEST BODY WT CHG: -1.5
  # OF ANMLS ALIVE CALC/TOTAL: 5/5
  Average tumor WEIGHT CHANGE (DELTA): -.74 MGS
  Average tumor weight, FINAL: .00 MGS
[1]; Table 1, 10.00 mg/kg
  % T/C: -84%
  ANML BODY WT DIFF (test minus control): -.3
  TEST BODY WT CHG: -2.0
  # OF ANMLS ALIVE CALC/TOTAL: 6/6
  Average tumor WEIGHT CHANGE (DELTA): -.49 MGS
  Average tumor weight, FINAL: .09 MGS
[1]; Table 1, 15.00 mg/kg
  ANML BODY WT DIFF (test minus control): -2.5
  TEST BODY WT CHG: -4.2
  # OF ANMLS ALIVE CALC/TOTAL: 6/6
  Average tumor WEIGHT CHANGE (DELTA): -.81 MGS
  Average tumor weight, FINAL: .00 MGS
[1]; Table 1, 22.40 mg/kg
  % T/C: TOX
  ANML BODY WT DIFF (test minus control): -.9
  TEST BODY WT CHG: -2.6
  # OF ANMLS ALIVE CALC/TOTAL: 3/6
  Average tumor weight, FINAL: .00 MGS
[1]; Table 2, 1.88 mg/kg
  % T/C: 5%
  ANML BODY WT DIFF (test minus control): 3.0
  TEST BODY WT CHG: -1.0
  # OF ANMLS ALIVE CALC/TOTAL: 4/5
  Average tumor WEIGHT CHANGE (DELTA): .71 MGS
  Average tumor weight, FINAL: 1.51 MGS
[1]; Table 2, 3.75 mg/kg
  ANML BODY WT DIFF (test minus control): 1.1
  TEST BODY WT CHG: -2.9
  # OF ANMLS ALIVE CALC/TOTAL: 4/5
  Average tumor WEIGHT CHANGE (DELTA): -.71 MGS
  Average tumor weight, FINAL: .00 MGS
[1]; Table 2, 7.50 mg/kg
  % T/C: TOX
  ANML BODY WT DIFF (test minus control): 2.3
  TEST BODY WT CHG: -1.7
  # OF ANMLS ALIVE CALC/TOTAL: 3/5
  Average tumor weight, FINAL: .00 MGS
[1]; Table 2, 15.00 mg/kg
  % T/C: TOX
  # OF ANMLS ALIVE CALC/TOTAL: 0/5
[2]
  Water solubility: only very slightly soluble in water
microtubules
  Effect on microtubules: promotes the assembly of microtubules but inhibits their disassembly
tumors
  Antitumor activity: potent antitumor activity against a wide variety of tumors

## CC(=O)O[C@H]1C(=O)[C@@]2(C)[C@H]([C@H](OC(=O)c3ccccc3)[C@]3(O)C[C@H](OC(=O)[C@H](OC(=O)CN(C)C)[C@@H](NC(=O)c4ccccc4)c4ccccc4)C(C)=C1C3(C)C)[C@]1(OC(C)=O)CO[C@@H]1C[C@@H]2O [Compound 2, Methanesulphonic acid salt of 2'-(N,N-dimethylglycyl)taxol]
Solubility; Clear
  solubility: 2000 µg/mL
Solubility; Slightly Hazy
  solubility: 15000 µg/mL
[3]; 0.02 M Acetate (0.1 mg/mL), pH 3.5, 25° C.
  half-life: 96.2 h
[3]; 0.02 M Acetate (0.1 mg/mL), pH 4.5, 25° C.
  half-life: 55.4 h
[3]; water (2 mg/mL), pH 3.8, 37° C.
  half-life: 89.8 h
[4]
  half-life: 3.05 min
[5]
  half-life: 2.03 h
[6]
  half-life: 3.31 h
